Laboratory results as given in patent US7220832B2, “Dermacentor variabilis GABA-gated chloride channels” (priority 2000, dated 2007).

Tested on: D. variabilis GABA-gated chloride channel
Experiment: Two-microelectrode voltage clamp recording of Xenopus laevis oocytes injected with Dv8, Dv9 or Dv5 mRNA
Type: cell-based, Dermacentor variabilis
Details: for current in response to application of compound: 1 mM, oocytes expressing Dv8 and Dv9 (SEQ. ID. NOs. 1 and 2), holding potential 0 or -30 mV; for block of the GABA-activated current: current activated by 1 mM GABA
Experimental: Functional expression of a D. variabilis GABA-gated chloride channel was observed using MRNA encoding for the polypeptide of SEQ. ID. NOs. 1, 2, and 3 injected into Xenopus laevis oocytes. MRNA encoding for SEQ. ID. NOs. 1, 2, and 3 were obtained using the Dv8, Dv9, and Dv5 clones as described in Example 1.
Xenopus laevis oocytes were prepared and injected using standard methods previously described. (Arena et al., Mol. Pharmaco. 40:368-374, 1991; and Arena et al., Mol. Brain Res. 15:339-348, 1992.) Adult female Xenopus laevis were anesthetized with 0.17% tricaine methanesulfonate and the ovaries were surgically removed and placed in a solution consisting of (mM): NaCl 82.5, KCl 2, MgCl2 1, HEPES 5, NaPyruvate 2.5, Penicillin G. 100,000 units/L, Streptomycin Sulfate 1000 mg/L, pH 7.5 (Mod. OR-2).
Ovarian lobes were broken open, rinsed several times in Mod. OR-2, and incubated in 0.2% collagenase (Sigma, Type1) in Mod. OR-2 at room temperature with gentle shaking. After 1 hour the collagenase solution was renewed and the oocytes were incubated for an additional 30-90 minutes until approximately 50% of the oocytes were released from the ovaries. Stage V and VI oocytes were selected and placed in media containing (mM): NaCl 96, KCl 2, MgCl2 1, CaCl2 1.8, HEPES 5, NaPyruvate 2.5, theophylline 0.5, gentamicin […], pH 7.5 (ND-96) for 16-24 hours before injection. Oocytes were injected with 50 nl of Dv8, Dv9, or Dv5 RNA at a concentration of 0.2 mg/ml. Oocytes were incubated at 18° C. for 1-6 days in ND-96 before recording.
Recordings were made at room temperature in modified ND-96 consisting of (mM): NaCl 96, MgCl2 1, CaCl2 0.1, BaCl2 3.5, HEPES 5, pH 7.5. Oocytes were voltage clamped using a Dagan CA1 two microelectrode amplifier (Dagan Corporation, Minneapolis, Minn.) interfaced to a Macintosh 7100/80 computer. The current passing electrode was filled with 0.7 M KCl, 1.7 M KCitrate, and the voltage recording electrode was filled with 1 M KCl. Throughout the experiment oocytes were superfused with modified ND-96 (control solution) or with ND-96 containing potential channel activators and blockers at a rate of approximately 3 ml/min. Data were acquired at 100 Hz and filtered at 33.3 Hz using Pulse software from HEKA Elektronik (Lambrecht, Germany). All recordings were performed from a holding potential of either 0 or −30 mV.
During a 60s application of GABA approximately 50% of the current desensitized and the remaining current deactivated rapidly upon wash-out of GABA. Repeated applications of 1 mM GABA elicited similar responses. […] Oocytes injected with Dv5 mRNA responded similarly to oocytes injected with Dv8 and Dv9 mRNA (data not shown).

NCCCC(=O)O [GABA, γ-Aminobutric acid]
current in response to application of compound: rapidly activating current | fraction of the current desensitized during application (60s application of 1 mM GABA, oocytes expressing Dv8 and Dv9): approximately 50%

N#Cc1nn(-c2c(Cl)cc(C(F)(F)F)cc2Cl)c(N)c1[S+]([O-])C(F)(F)F (centres unmarked) [fipronil]
block of the GABA-activated current (5 μM, FIG. 5, channel of SEQ. ID. NO. 2 (Dv9)): blocked completely

N[C@@H](CCC(=O)O)C(=O)O [glutamate]
current in response to application of compound: did not activate a current

C=C(C)[C@@H]1[C@H]2OC(=O)[C@@H]1[C@]1(O)C[C@H]3O[C@]34C(=O)O[C@H]2[C@]14C [picrotoxinin]
block of the GABA-activated current (10 μM, data not shown): blocked completely
